pIC50, pKi: −log10 of the molar value.
Experiments:
[1] = Cytotoxicity against human MRC5 cells up to 1 x 10^-4M; assay type: toxicity, cell-based
NAD kinase [2] = biological target: T1, NAD kinase (Homo sapiens, UniProt O95544); experiment: Inhibition of human NADK expressed in Escherichia coli BL21(DE3) assessed as reduction in NADP production using NAD as substrate by glucose-6-phosphate dehydrogenase coupled enzyme based spectrophotometric method
T1 sequence (O95544 whole entry): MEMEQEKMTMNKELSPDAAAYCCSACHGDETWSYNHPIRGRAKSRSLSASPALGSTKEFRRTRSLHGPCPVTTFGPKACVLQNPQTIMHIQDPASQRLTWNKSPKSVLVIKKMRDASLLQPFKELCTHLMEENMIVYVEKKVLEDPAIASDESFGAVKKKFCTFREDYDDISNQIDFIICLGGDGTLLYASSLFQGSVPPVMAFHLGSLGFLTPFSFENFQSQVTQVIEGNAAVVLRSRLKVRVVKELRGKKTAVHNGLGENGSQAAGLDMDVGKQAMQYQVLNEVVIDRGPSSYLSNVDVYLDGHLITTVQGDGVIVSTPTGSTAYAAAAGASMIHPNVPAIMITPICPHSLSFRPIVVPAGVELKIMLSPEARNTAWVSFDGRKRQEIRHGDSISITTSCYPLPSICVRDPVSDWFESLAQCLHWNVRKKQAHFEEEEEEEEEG

[3] = Competitive inhibition of Listeria monocytogenes C-terminal His6-tagged NADK1 expressed in Escherichia coli BL21(DE3) assessed as reduction in NADP production using varying levels of NAD as substrate by glucose-6-phosphate dehydrogenase coupled enzyme based spectrophotometric method
[4] = biological target: T2, NAD kinase (Homo sapiens) (UniProt O95544); experiment: (§1) Inhibition of human NADK expressed in Escherichia coli BL21(DE3) assessed as reduction in NADP production at 500 uM using NAD as substrate by glucose-6-phosphate dehydrogenase coupled enzyme based spectrophotometric method relative to control
T2 sequence (whole entry): T1 sequence (O95544 whole entry)

[5] = biological target: T2, NAD kinase (Homo sapiens); experiment: Inhibition of human NADK expressed in Escherichia coli BL21(DE3) assessed as reduction in NADP production at 250 uM using NAD as substrate by glucose-6-phosphate dehydrogenase coupled enzyme based spectrophotometric method relative to control
NAD kinase [6] = biological target: T3, NAD kinase (Staphylococcus aureus (strain COL), UniProt Q5HH78); experiment: Inhibition of Staphylococcus aureus COL NADK expressed in Escherichia coli BL21(DE3) assessed as reduction in NADP production using NAD as substrate by glucose-6-phosphate dehydrogenase coupled enzyme based spectrophotometric method; set-up: species or system Staphylococcus aureus subsp. aureus COL
T3 sequence (Q5HH78 whole entry): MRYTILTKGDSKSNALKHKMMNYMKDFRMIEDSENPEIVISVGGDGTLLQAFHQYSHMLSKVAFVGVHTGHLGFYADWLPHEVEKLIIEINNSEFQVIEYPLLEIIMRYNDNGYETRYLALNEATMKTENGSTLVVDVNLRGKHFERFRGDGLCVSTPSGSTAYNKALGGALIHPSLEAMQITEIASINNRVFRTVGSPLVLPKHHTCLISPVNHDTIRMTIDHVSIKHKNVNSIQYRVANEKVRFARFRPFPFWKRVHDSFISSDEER

[7] = biological target: T2, NAD kinase (Homo sapiens); experiment: Inhibition of human NADK expressed in Escherichia coli BL21(DE3) assessed as reduction in NADP production at 400 uM using NAD as substrate by glucose-6-phosphate dehydrogenase coupled enzyme based spectrophotometric method relative to control
[8] = Ratio of Ki for human NADK harboring Listeria monocytogenes NADK1 segment 1 expressed in Escherichia coli BL21(DE3) to Ki for human NADK expressed in Escherichia coli BL21(DE3)
Listeria monocytogenes = experiment: as §1, with “Listeria monocytogenes C-terminal His6-tagged NADK1” for “human NADK”, “300” for “500”, “control relative to control” for “control”

| SMILES | Activity [1] | pKi (NAD kinase [2]) | pKi [3] | further results |
| --- | --- | --- | --- | --- |
| Cn1cc(CCNC(=O)CSc2nc3c(N)ncnc3n2[C@@H]2O[C@H](CN=[N+]=[N-])[C@@H](O)[C@H]2O)c2ccccc21 | Non-Toxic | 3.46 | 6.40 |  |
| C[C@H]1O[C@@H](n2c(SCC(=O)NCCc3ccc(Cl)c(Cl)c3)nc3c(N)ncnc32)[C@H](O)[C@@H]1O | Non-Toxic | 3.74 | 5.82 |  |
| Nc1ncnc2c1nc(SCC(=O)NCCc1c[nH]c3ccccc13)n2[C@@H]1O[C@H](CO)[C@@H](O)[C@H]1O | Non-Toxic |  | 5.70 | inhibition [4]: 20% |
| COc1ccc2[nH]cc(CCNC(=O)CSc3nc4c(N)ncnc4n3[C@@H]3O[C@H](CN=[N+]=[N-])[C@@H](O)[C@H]3O)c2c1 | Non-Toxic | 3.80 | 5.30 |  |
| Nc1ncnc2c1nc(SCC(=O)NCCc1ccc(Cl)cc1)n2[C@@H]1O[C@H](CO)[C@@H](O)[C@H]1O | Non-Toxic |  | 4.40 | inhibition [4]: 20% |
| CCNC(=O)NC[C@H]1O[C@@H](n2c(SCC(=O)NCCc3ccc(Cl)c(Cl)c3)nc3c(N)ncnc32)[C@H](O)[C@@H]1O | Non-Toxic |  | 5.52 | inhibition [5]: 10% |
| [N-]=[N+]=NC[C@H]1O[C@@H](n2c(SCC(=O)NCCc3ccc(Br)cc3)nc3c(N)ncnc32)[C@H](O)[C@@H]1O | Non-Toxic |  | 6.30 |  |
| Nc1ncnc2c1nc(SCCC(=O)NCCc1cccc(Br)c1)n2[C@@H]1O[C@H](CO)[C@@H](O)[C@H]1O | Non-Toxic |  | 4.30 | pIC50 (NAD kinase [6]): < 3.40 |
| C#Cc1cccc(CCNC(=O)CSc2nc3c(N)ncnc3n2[C@@H]2O[C@H](CN=[N+]=[N-])[C@@H](O)[C@H]2O)c1 | Non-Toxic |  | 5.22 | inhibition [5]: 20% |
| [N-]=[N+]=NC[C@H]1O[C@@H](n2c(SCC(=O)NCCc3ccc(Cl)cc3)nc3c(N)ncnc32)[C@H](O)[C@@H]1O | Non-Toxic | 3.68 | 6.30 |  |
| Nc1ncnc2c1nc(SCC(=O)NCCc1cccc(Br)c1)n2[C@@H]1O[C@H](CO)[C@@H](O)[C@H]1O | Non-Toxic | 3.47 | 5.70 | pIC50 (NAD kinase [6]): < 3.40 |
| CN(C)S(=O)(=O)NC[C@H]1O[C@@H](n2c(SCC(=O)NCCc3ccc(Cl)c(Cl)c3)nc3c(N)ncnc32)[C@H](O)[C@@H]1O | Non-Toxic | 3.80 | 5.46 |  |
| NC[C@H]1O[C@@H](n2c(SCC(=O)NCCc3ccc(Cl)c(Cl)c3)nc3c(N)ncnc32)[C@H](O)[C@@H]1O | Non-Toxic | 3.89 | 5.70 |  |
| Nc1ncnc2c1nc(SCC(=O)NCCc1ccccc1)n2[C@@H]1O[C@H](CO)[C@@H](O)[C@H]1O | Non-Toxic |  | 3.85 | inhibition [7]: 10%; pIC50 (NAD kinase [6]): < 3.40 |
| NC[C@H]1O[C@@H](n2c(SCC(=O)NCCc3ccc(Br)cc3)nc3c(N)ncnc32)[C@H](O)[C@@H]1O | Non-Toxic | 3.89 | 4.26 |  |
| [N-]=[N+]=NC[C@H]1O[C@@H](n2c(SCC(=O)NCCCc3ccccc3)nc3c(N)ncnc32)[C@H](O)[C@@H]1O | Non-Toxic | 3.82 | 4.26 | pIC50 (NAD kinase [6]): < 3.40 |
| [N-]=[N+]=NC[C@H]1O[C@@H](n2c(SCC(=O)NCCc3cccc(C(F)(F)F)c3)nc3c(N)ncnc32)[C@H](O)[C@@H]1O | Non-Toxic | 3.52 | 5.19 |  |

| SMILES | Activity [1] | pKi (NAD kinase [2]) | pKi [3] | further results |
| --- | --- | --- | --- | --- |
| [N-]=[N+]=NC[C@H]1O[C@@H](n2c(SCC(=O)NCCc3c[nH]c4ccccc34)nc3c(N)ncnc32)[C@H](O)[C@@H]1O | Non-Toxic | 3.85 | 6.30 |  |
| [N-]=[N+]=NC[C@H]1O[C@@H](n2c(SCC(=O)NCCc3ccc(Cl)c(Cl)c3)nc3c(N)ncnc32)[C@H](O)[C@@H]1O | Non-Toxic | 3.85 | 7.00 |  |
| [N-]=[N+]=NC[C@H]1O[C@@H](n2c(SCC(=O)NCCc3ccc(C(F)(F)F)cc3)nc3c(N)ncnc32)[C@H](O)[C@@H]1O | Non-Toxic | 3.64 | 5.12 |  |
| [N-]=[N+]=NC[C@H]1O[C@@H](n2c(SCC(=O)NCc3cccc(Br)c3)nc3c(N)ncnc32)[C@H](O)[C@@H]1O | Non-Toxic |  | 4.60 | pIC50 (NAD kinase [6]): < 3.40 |
| [N-]=[N+]=NC[C@H]1O[C@@H](n2c(SCC(=O)NCCc3ccccc3)nc3c(N)ncnc32)[C@H](O)[C@@H]1O | Non-Toxic | 3.46 | 5.30 | Ratio Ki [8]: 3; pIC50 (NAD kinase [6]): < 3.40 |
| [N-]=[N+]=NC[C@H]1O[C@@H](n2c(SCC(=O)NCCc3ccc4ccccc4c3)nc3c(N)ncnc32)[C@H](O)[C@@H]1O | Non-Toxic | 3.85 | 5.30 |  |
| C#CCNC(=O)CSc1nc2c(N)ncnc2n1[C@@H]1O[C@H](CN=[N+]=[N-])[C@@H](O)[C@H]1O | Non-Toxic | 3.85 | 4.52 | pIC50 (NAD kinase [6]): < 3.40 |
| Nc1ncnc2c1nc(SCC(=O)NCCc1ccc(Cl)c(Cl)c1)n2[C@@H]1O[C@H](CO)[C@@H](O)[C@H]1O | Non-Toxic | 3.37 | 4.66 |  |
| [N-]=[N+]=NC[C@H]1O[C@@H](n2c(SCC(=O)NCc3ccnc(Cl)c3)nc3c(N)ncnc32)[C@H](O)[C@@H]1O | Non-Toxic | 3.66 |  | inhibition (Listeria monocytogenes): 20%; pIC50 (NAD kinase [6]): < 3.40 |
| [N-]=[N+]=NC[C@H]1O[C@@H](n2c(SCC(=O)NCCc3cccc(Cl)c3)nc3c(N)ncnc32)[C@H](O)[C@@H]1O | Non-Toxic |  | 6.12 |  |
| [N-]=[N+]=NC[C@H]1O[C@@H](n2c(SCC(=O)NCCc3nc4ccccc4[nH]3)nc3c(N)ncnc32)[C@H](O)[C@@H]1O | Non-Toxic | 3.28 | 4.64 |  |
| [N-]=[N+]=NC[C@H]1O[C@@H](n2c(SCC(=O)NCCc3c[nH]c4ccc(Cl)cc34)nc3c(N)ncnc32)[C@H](O)[C@@H]1O | Non-Toxic |  | 6.52 |  |
| Nc1ncnc2c1nc(SCC(=O)NCCc1cccc(Cl)c1)n2[C@@H]1O[C@H](CO)[C@@H](O)[C@H]1O | Non-Toxic | 3.70 | 4.52 |  |
| Nc1ncnc2c1nc(SCC(=O)NCCc1c[nH]c3ccc(Cl)cc13)n2[C@@H]1O[C@H](CO)[C@@H](O)[C@H]1O | Non-Toxic | 3.11 | 6.60 |  |
| COc1ccc2[nH]cc(CCNC(=O)CSc3nc4c(N)ncnc4n3[C@@H]3O[C@H](CO)[C@@H](O)[C@H]3O)c2c1 | Non-Toxic |  | 4.40 |  |
| Nc1ncnc2c1nc(SCC(=O)NCCc1ccc(Br)cc1)n2[C@@H]1O[C@H](CO)[C@@H](O)[C@H]1O | Non-Toxic | 3.60 | 4.52 |  |
| Nc1ncnc2c1nc(SCC(=O)NCCc1ccc(C(F)(F)F)cc1)n2[C@@H]1O[C@H](CO)[C@@H](O)[C@H]1O | Non-Toxic |  | 5.00 |  |

Source: ChEMBL document CHEMBL3875180, “8-Thioalkyl-adenosine derivatives inhibit Listeria monocytogenes NAD kinase through a novel binding mode” (Eur J Med Chem, 2016)
